Laboratory results as given in ChEMBL document CHEMBL1201862, “PubChem BioAssay data set” (2004).
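Method: 48-hour compound exposure of cells in 96-well plates, five concentrations, linear interpolation of endpoints. The concentration for 50% growth inhibition is given as GI50.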 Active and inactive are the calls of the source. No stated cut-off is given here; in the data, active = GI50 up to about 1.1 µM and inactive = higher.

Tests used:
Experiment in all cases: inhibition of tumour cell growth, NCI panel, 48 h
[1] = tested on: SK-MEL-2
[2] = tested on: TK-10
[3] = tested on: OVCAR-8
[4] = tested on: NCI-H226
[5] = tested on: BT-549
[6] = tested on: Hs-578T
[7] = tested on: SK-MEL-5
[8] = tested on: UACC-257
[9] = tested on: T47D
[10] = tested on: A498
[11] = tested on: HT-29
[12] = tested on: OVCAR-4
[13] = tested on: UACC-62
[14] = tested on: PC-3
[15] = tested on: MDA-MB-435
[16] = tested on: HOP-62
[17] = tested on: IGROV-1
[18] = tested on: SF-539
[19] = tested on: Malme-3M
[20] = tested on: UO-31
[21] = tested on: HL-60
[22] = tested on: EKVX
[23] = tested on: OVCAR-3
[24] = tested on: COLO 205
[25] = tested on: 786-0
[26] = tested on: ACHN
[27] = tested on: SK-OV-3
[28] = tested on: SK-MEL-28
[29] = tested on: MDA-N
[30] = tested on: OVCAR-5
[31] = tested on: HOP-92
[32] = tested on: MCF7
[33] = tested on: NCI/ADR-RES
[34] = tested on: NCI-H23
[35] = tested on: SF-268
[36] = tested on: DU-145
[37] = tested on: RXF 393
[38] = tested on: CAKI-1
[39] = tested on: K562
[40] = tested on: A549
[41] = tested on: MDA-MB-231
[42] = tested on: KM12
[43] = tested on: SF-295
[44] = tested on: CCRF-CEM
[45] = tested on: SNB-75
[46] = tested on: NCI-H460
[47] = tested on: LOX IMVI
[48] = tested on: HCT-116
[49] = tested on: RPMI-8226
[50] = tested on: SN12C
[51] = tested on: MOLT-4
[52] = tested on: HCT-15
[53] = tested on: U-251
[54] = tested on: SR
[55] = tested on: SW-620
[56] = tested on: M14
[57] = tested on: NCI-H522
[58] = tested on: SNB-19
[59] = tested on: HCC 2998

O=c1oc2ncccc2n1Cc1ccc([N+](=O)[O-])cc1
GI50 [1]: > 100 µM (inactive)
GI50 [2]: > 100 µM (inactive)
GI50 [3]: > 100 µM (inactive)
GI50 [4]: > 100 µM (inactive)
GI50 [5]: 38.1 µM (inactive)
GI50 [6]: > 100 µM (inactive)
GI50 [7]: > 100 µM (inactive)
GI50 [8]: > 100 µM (inactive)
GI50 [9]: > 100 µM (inactive)
GI50 [10]: > 100 µM (inactive)
GI50 [11]: > 100 µM (inactive)
GI50 [12]: > 100 µM (inactive)
GI50 [13]: > 100 µM (inactive)
GI50 [14]: > 100 µM (inactive)
GI50 [15]: > 100 µM (inactive)
GI50 [16]: > 100 µM (inactive)
GI50 [17]: > 100 µM (inactive)
GI50 [18]: > 100 µM (inactive)
GI50 [19]: > 100 µM (inactive)
GI50 [20]: 26.5 µM (inactive)
GI50 [21]: > 100 µM (inactive)
GI50 [22]: > 100 µM (inactive)
GI50 [23]: > 100 µM (inactive)
GI50 [24]: > 100 µM (inactive)
GI50 [25]: > 100 µM (inactive)
GI50 [26]: > 100 µM (inactive)
GI50 [27]: > 100 µM (inactive)
GI50 [28]: > 100 µM (inactive)
GI50 [29]: > 100 µM (inactive)
GI50 [30]: > 100 µM (inactive)
GI50 [31]: > 100 µM (inactive)
GI50 [32]: > 100 µM (inactive)
GI50 [33]: > 100 µM (inactive)
GI50 [34]: > 100 µM (inactive)
GI50 [35]: > 100 µM (inactive)
GI50 [36]: > 100 µM (inactive)
GI50 [37]: > 100 µM (inactive)
GI50 [38]: > 100 µM (inactive)
GI50 [39]: > 100 µM (inactive)
GI50 [40]: > 100 µM (inactive)
GI50 [41]: > 100 µM (inactive)
GI50 [42]: > 100 µM (inactive)
GI50 [43]: > 100 µM (inactive)
GI50 [44]: > 100 µM (inactive)
GI50 [45]: 80.7 µM (inactive)
GI50 [46]: > 100 µM (inactive)
GI50 [47]: > 100 µM (inactive)
GI50 [48]: 68.2 µM (inactive)
GI50 [49]: > 100 µM (inactive)
GI50 [50]: > 100 µM (inactive)
GI50 [51]: > 100 µM (inactive)
GI50 [52]: > 100 µM
GI50 [53]: > 100 µM (inactive)
GI50 [54]: > 100 µM (inactive)
GI50 [55]: > 100 µM (inactive)
GI50 [56]: > 100 µM (inactive)
GI50 [57]: > 100 µM (inactive)

C=CCCCC1(C)CCCCNC1=O (centres undefined)
GI50 [1]: > 10 µM (inactive)
GI50 [2]: > 10 µM (inactive)
GI50 [3]: > 10 µM (inactive)
GI50 [4]: > 10 µM (inactive)
GI50 [5]: > 10 µM (inactive)
GI50 [6]: > 10 µM (inactive)
GI50 [7]: > 10 µM (inactive)
GI50 [8]: > 10 µM (inactive)
GI50 [9]: > 10 µM (inactive)
GI50 [10]: > 10 µM (inactive)
GI50 [11]: > 10 µM (inactive)
GI50 [58]: > 10 µM (inactive)
GI50 [12]: > 10 µM (inactive)
GI50 [13]: > 10 µM (inactive)
GI50 [14]: > 10 µM (inactive)
GI50 [15]: > 10 µM (inactive)
GI50 [16]: > 10 µM (inactive)
GI50 [17]: > 10 µM (inactive)
GI50 [18]: > 10 µM (inactive)
GI50 [19]: > 10 µM (inactive)
GI50 [20]: > 10 µM (inactive)
GI50 [21]: > 10 µM (inactive)
GI50 [22]: > 10 µM (inactive)
GI50 [23]: > 10 µM (inactive)
GI50 [24]: > 10 µM (inactive)
GI50 [25]: > 10 µM (inactive)
GI50 [26]: > 10 µM (inactive)
GI50 [27]: > 10 µM (inactive)
GI50 [28]: > 10 µM (inactive)
GI50 [29]: > 10 µM (inactive)
GI50 [30]: > 10 µM (inactive)
GI50 [32]: > 10 µM (inactive)
GI50 [33]: > 10 µM (inactive)
GI50 [34]: > 10 µM (inactive)
GI50 [35]: > 10 µM (inactive)
GI50 [36]: > 10 µM (inactive)
GI50 [37]: > 10 µM (inactive)
GI50 [38]: > 10 µM (inactive)
GI50 [39]: > 10 µM (inactive)
GI50 [40]: > 10 µM (inactive)
GI50 [41]: > 10 µM (inactive)
GI50 [42]: > 10 µM (inactive)
GI50 [43]: > 10 µM (inactive)
GI50 [44]: > 10 µM (inactive)
GI50 [59]: > 10 µM (inactive)
GI50 [45]: > 10 µM (inactive)
GI50 [46]: > 10 µM (inactive)
GI50 [47]: > 10 µM (inactive)
GI50 [48]: > 10 µM (inactive)
GI50 [49]: > 10 µM (inactive)
GI50 [50]: > 10 µM (inactive)
GI50 [51]: > 10 µM (inactive)
GI50 [52]: > 10 µM
GI50 [53]: > 10 µM (inactive)
GI50 [54]: > 10 µM (inactive)
GI50 [55]: > 10 µM (inactive)
GI50 [56]: > 10 µM (inactive)
